The term inhibition denotes the relative decrease from the control value, in per cent.

For one data set, the target named is T1, FYN(isoform b) (Homo sapiens, UniProt P06241).
T1 construct: purchased Carna Biosciences, Inc
The data set can be described thus: Off-chip Mobility Shift Assay, kinase inhibition. The data set is classed as biochemical. As to conditions: recombinant FYN(isoform b).

Another data set addresses T2, SRM (Homo sapiens, UniProt Q9H3Y6).
T2 construct: purchased Carna Biosciences, Inc
In words: Off-chip Mobility Shift Assay, kinase inhibition. The following applies: at 10 nM; recombinant SRM. It is filed as biochemical.

The target of a further data set is T3, KIT(D816V) (Homo sapiens, UniProt P10721, D816V).
T3 construct: purchased Carna Biosciences, Inc
The data set can be described thus: Off-chip Mobility Shift Assay, kinase inhibition. It is filed as biochemical. As to conditions: at 10 nM; recombinant KIT(D816V).

For another data set, the target named is T4, BRK (Homo sapiens, UniProt Q13882).
T4 construct: purchased Carna Biosciences, Inc
In words: Off-chip Mobility Shift Assay, kinase inhibition. The data set is classed as biochemical. As to conditions: at 10 nM; recombinant BRK.

For a further data set, the target named is T5, KIT (Homo sapiens, UniProt P10721).
T5 construct: purchased Carna Biosciences, Inc
The data set can be described thus: Off-chip Mobility Shift Assay, kinase inhibition. It is filed as biochemical. As to conditions: recombinant KIT; for inhibition at 0.01 µM: at 10 nM.

The next data set deals with T6, KIT(V560G) (Homo sapiens, UniProt P10721, V560G).
T6 construct: purchased Carna Biosciences, Inc
In words: Off-chip Mobility Shift Assay, kinase inhibition. It is filed as biochemical. The following applies: recombinant KIT(V560G); for inhibition at 0.01 µM: at 10 nM.

A further data set has as its target T7, EGFR(L858R) (Homo sapiens, UniProt P00533, L858R).
T7 construct: purchased Carna Biosciences, Inc
The data set can be described thus: Off-chip Mobility Shift Assay, kinase inhibition. It is filed as biochemical. The following applies: at 10 nM; recombinant EGFR(L858R).

The target of a further data set is T8, EGFR (Homo sapiens, UniProt P00533).
T8 construct: purchased Carna Biosciences, Inc
In words: Off-chip Mobility Shift Assay, kinase inhibition. It is filed as biochemical. The following applies: recombinant EGFR; for inhibition at 0.01 µM: at 10 nM.

In another data set the target is T9, ALK (Homo sapiens, UniProt Q9UM73).
T9 construct: purchased Carna Biosciences, Inc
The data set can be described thus: Off-chip Mobility Shift Assay, kinase inhibition. As to conditions: at 10 nM; recombinant ALK. The data set is classed as biochemical.

For another data set, the target named is T10, RAF1 (Homo sapiens, UniProt P04049, Y340D/Y341D).
T10 construct: purchased Carna Biosciences, Inc
The data set can be described thus: Off-chip Mobility Shift Assay, kinase inhibition. As to conditions: recombinant RAF1; for inhibition at 0.01 µM: at 10 nM. It is filed as biochemical.

The next data set has as its target T11, p38α (Homo sapiens, UniProt Q16539).
T11 construct: purchased Carna Biosciences, Inc
The data set can be described thus: Off-chip Mobility Shift Assay, kinase inhibition. The data set is classed as biochemical. The following applies: recombinant p38α; for inhibition at 0.01 µM: at 10 nM.

In a further data set the target is T12, HER2 (Homo sapiens, UniProt P04626).
T12 construct: purchased Carna Biosciences, Inc
In words: Off-chip Mobility Shift Assay, kinase inhibition. The data set is classed as biochemical. As to conditions: recombinant HER2; for inhibition at 0.01 µM: at 10 nM.

In a further data set the target is T13, p38β (Homo sapiens, UniProt Q15759).
T13 construct: purchased Carna Biosciences, Inc
The data set can be described thus: Off-chip Mobility Shift Assay, kinase inhibition. As to conditions: recombinant p38β; for inhibition at 0.01 µM: at 10 nM. It is filed as biochemical.

In the next data set the target is T14, BRAF (Homo sapiens, UniProt P15056).
T14 construct: purchased Carna Biosciences, Inc
In words: Off-chip Mobility Shift Assay, kinase inhibition. The following applies: recombinant BRAF; for inhibition at 0.01 µM: at 10 nM. It is filed as biochemical.

The next data set deals with T15, KIT(T670I) (Homo sapiens, UniProt P10721, T670I).
T15 construct: purchased Carna Biosciences, Inc
The data set can be described thus: Off-chip Mobility Shift Assay, kinase inhibition. As to conditions: at 10 nM; recombinant KIT(T670I). It is filed as biochemical.

The next data set has as its target T16, PKD1 (Homo sapiens, UniProt Q15139).
T16 construct: purchased Carna Biosciences, Inc
In words: Off-chip Mobility Shift Assay, kinase inhibition. As to conditions: at 10 nM; recombinant PKD1. The data set is classed as biochemical.

The target of a further data set is T17, JAK2 (Homo sapiens, UniProt O60674).
T17 construct: purchased Carna Biosciences, Inc
In words: Off-chip Mobility Shift Assay, kinase inhibition. As to conditions: at 10 nM; recombinant JAK2. The data set is classed as biochemical.

A further data set has as its target T18, YES(T348I) (Homo sapiens, UniProt P07947, T348I).
T18 construct: purchased Carna Biosciences, Inc
In words: Off-chip Mobility Shift Assay, kinase inhibition. The data set is classed as biochemical. The following applies: recombinant YES(T348I).

The target of another data set is T19, LYNb (Homo sapiens, UniProt P07948).
T19 construct: purchased Carna Biosciences, Inc
In words: Off-chip Mobility Shift Assay, kinase inhibition. The data set is classed as biochemical. The following applies: at 1 nM; recombinant LYNb.

A short description of data set [1]: Pharmacokinetics in Sprague-Dawley rats, 2-in-1 dosing. The data set is classed as in vivo. The following applies: rat; for V: intravenous 1 mg/kg. The protocol: Sprague-Dawley rats (approximate weight 275-300 g, N=3) were dosed intravenously at 5 mL/kg and orally at 10 mL/kg with the above dosing solutions. Blood samples were collected into tubes containing EDTA as the anticoagulant at 0, 0.25 (intravenous only), 0.5, 1, 2, 4, 8, 10, and 24 h post-dosing, and plasma samples were prepared by centrifugation. The plasma samples were mixed with 3× volumes of acetonitrile containing 100 nM reserpine as the internal standard, and centrifuged at 4000 RPM for 15 min. The supernatants were injected for LC/MS analysis which were carried out on a AB Sciex 4000 Q Trap LC/MS/MS system coupled with Shimadzu Prominence UFLCXR 20 series (including a CBM-20A controller, two LC-20ADXR solvent delivery units, SIL-20AC HT autosampler, CTO-20A column oven, and a SPD-20A UV detector). The samples were separated on a Phenomenex Columbus column (C18, 4 μm, 50×2 mm) eluted with two solvent systems: 2 mM ammonium acetate in water containing 0.1% formic acid (A) and methanol (B) at a linear gradient starting with 25% B. Electrospray ionization in positive mode was used to acquire LC/MS/MS data.

Data set [2] can be described thus: Lung tissue and plasma concentration ratios in mice. The following applies: single oral dose 5 mg/kg, 2-in-1 with dasatinib, all time points tested. It is filed as in vivo, CD-1 mouse. The method, then: CD-1 mouse (approximate weight 30 g, N=3) were dosed by oral gavage at 10 mL/kg. Blood samples were collected into tubes containing EDTA as the anticoagulant at 1, 2, 4, 10 h post-dosing for Compound X, and predose, 1, 2, 3, 8, 10 and 24 h post-dosing for Compound XI. The plasma samples were prepared by centrifugation. Lung samples were also collected at each of the above time points. The lung samples were homogenated in 4× distilled water (v/w). The plasma samples and the homogenated lung tissue samples were mixed with 3× volumes of acetonitrile containing 100 nM reserpine as the internal standard, and centrifuged at 4000 RPM for 15 min. The supernatants were injected for LC/MS analysis which were carried out on a AB Sciex 4000 Q Trap LC/MS/MS system coupled with Shimadzu Prominence UFLCXR 20 series (including a CBM-20A controller, two LC-20ADXR solvent delivery units, SIL-20AC HT autosampler, CTO-20A column oven, and a SPD-20A UV detector). The samples were separated on a Phenomenex Columbus column (C18, 4 μm, 50×2 mm) eluted with two solvent systems: 2 mM ammonium acetate in water containing 0.1% formic acid (A) and methanol (B) at a linear gradient starting at 25%. Electrospray ionization in positive mode was used to acquire LC/MS/MS data.

The mark [3] stands for this setting: Table 2, co-dosed with compound IV.
Setting [4] is: Table 3, co-dosed with compound X.

The structures appear in SMILES notation.

T10 sequence (P04049 306-648 Y340D/Y341D limits assumed): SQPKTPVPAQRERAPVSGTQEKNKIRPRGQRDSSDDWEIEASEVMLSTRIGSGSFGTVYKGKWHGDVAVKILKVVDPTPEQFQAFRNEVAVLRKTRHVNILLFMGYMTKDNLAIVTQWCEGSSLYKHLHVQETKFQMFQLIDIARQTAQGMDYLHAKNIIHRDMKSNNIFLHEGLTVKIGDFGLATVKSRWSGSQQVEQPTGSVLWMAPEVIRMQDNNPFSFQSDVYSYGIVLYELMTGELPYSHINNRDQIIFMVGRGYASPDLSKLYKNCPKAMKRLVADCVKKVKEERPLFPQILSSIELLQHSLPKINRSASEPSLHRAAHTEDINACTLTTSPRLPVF
T11 sequence (Q16539 whole entry): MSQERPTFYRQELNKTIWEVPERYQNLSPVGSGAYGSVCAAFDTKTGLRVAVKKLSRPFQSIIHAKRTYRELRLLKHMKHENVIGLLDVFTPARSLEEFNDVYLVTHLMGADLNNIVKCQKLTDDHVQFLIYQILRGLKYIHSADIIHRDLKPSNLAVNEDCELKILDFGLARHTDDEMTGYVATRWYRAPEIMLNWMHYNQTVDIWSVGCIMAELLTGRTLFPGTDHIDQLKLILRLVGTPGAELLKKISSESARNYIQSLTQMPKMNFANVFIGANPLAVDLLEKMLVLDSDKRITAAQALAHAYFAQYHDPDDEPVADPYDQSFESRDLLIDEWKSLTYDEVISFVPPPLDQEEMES
T14 sequence (P15056 whole entry): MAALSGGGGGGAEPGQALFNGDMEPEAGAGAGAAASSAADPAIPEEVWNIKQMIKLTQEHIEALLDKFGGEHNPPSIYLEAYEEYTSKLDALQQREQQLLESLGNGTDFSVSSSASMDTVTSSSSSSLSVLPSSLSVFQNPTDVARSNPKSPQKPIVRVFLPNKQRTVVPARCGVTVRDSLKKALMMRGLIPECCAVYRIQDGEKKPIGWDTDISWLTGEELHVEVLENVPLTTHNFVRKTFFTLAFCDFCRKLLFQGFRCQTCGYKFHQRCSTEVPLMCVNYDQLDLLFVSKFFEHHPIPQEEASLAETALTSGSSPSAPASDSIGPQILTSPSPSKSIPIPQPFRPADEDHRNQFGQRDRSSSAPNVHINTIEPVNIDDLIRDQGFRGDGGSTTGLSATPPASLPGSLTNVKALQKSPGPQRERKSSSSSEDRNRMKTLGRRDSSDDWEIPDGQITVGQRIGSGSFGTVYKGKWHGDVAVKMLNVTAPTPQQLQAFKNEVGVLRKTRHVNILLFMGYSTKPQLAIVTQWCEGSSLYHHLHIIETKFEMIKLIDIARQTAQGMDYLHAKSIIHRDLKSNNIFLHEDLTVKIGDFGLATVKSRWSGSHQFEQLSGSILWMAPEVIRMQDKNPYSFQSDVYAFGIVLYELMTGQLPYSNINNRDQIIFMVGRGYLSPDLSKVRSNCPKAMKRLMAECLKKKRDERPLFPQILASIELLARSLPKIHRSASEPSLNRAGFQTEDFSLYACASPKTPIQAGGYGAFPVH
T6 sequence (P10721 26-976 V560G): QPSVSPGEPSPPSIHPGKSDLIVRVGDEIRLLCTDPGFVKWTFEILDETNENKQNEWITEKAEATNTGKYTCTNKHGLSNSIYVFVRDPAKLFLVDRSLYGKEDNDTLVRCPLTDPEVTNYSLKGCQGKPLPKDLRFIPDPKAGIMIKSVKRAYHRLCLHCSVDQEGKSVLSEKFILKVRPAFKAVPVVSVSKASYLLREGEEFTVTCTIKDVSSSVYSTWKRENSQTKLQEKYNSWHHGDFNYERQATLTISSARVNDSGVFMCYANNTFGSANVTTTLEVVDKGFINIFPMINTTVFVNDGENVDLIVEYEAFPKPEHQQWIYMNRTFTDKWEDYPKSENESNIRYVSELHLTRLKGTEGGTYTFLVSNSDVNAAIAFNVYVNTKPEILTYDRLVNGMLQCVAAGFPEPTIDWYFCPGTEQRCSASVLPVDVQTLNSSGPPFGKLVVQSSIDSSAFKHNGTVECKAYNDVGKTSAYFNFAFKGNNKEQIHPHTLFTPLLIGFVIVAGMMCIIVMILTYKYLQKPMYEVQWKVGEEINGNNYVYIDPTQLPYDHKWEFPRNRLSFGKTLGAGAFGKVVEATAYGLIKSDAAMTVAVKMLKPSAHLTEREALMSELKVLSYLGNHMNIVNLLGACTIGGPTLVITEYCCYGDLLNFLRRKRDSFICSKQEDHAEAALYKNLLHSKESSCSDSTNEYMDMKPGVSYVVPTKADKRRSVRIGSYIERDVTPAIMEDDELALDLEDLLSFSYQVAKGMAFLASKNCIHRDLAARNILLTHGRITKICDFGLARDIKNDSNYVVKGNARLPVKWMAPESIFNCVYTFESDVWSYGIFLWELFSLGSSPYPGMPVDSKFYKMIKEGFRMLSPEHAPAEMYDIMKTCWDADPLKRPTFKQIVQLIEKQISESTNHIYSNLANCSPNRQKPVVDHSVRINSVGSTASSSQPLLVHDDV
T13 sequence (Q15759 whole entry): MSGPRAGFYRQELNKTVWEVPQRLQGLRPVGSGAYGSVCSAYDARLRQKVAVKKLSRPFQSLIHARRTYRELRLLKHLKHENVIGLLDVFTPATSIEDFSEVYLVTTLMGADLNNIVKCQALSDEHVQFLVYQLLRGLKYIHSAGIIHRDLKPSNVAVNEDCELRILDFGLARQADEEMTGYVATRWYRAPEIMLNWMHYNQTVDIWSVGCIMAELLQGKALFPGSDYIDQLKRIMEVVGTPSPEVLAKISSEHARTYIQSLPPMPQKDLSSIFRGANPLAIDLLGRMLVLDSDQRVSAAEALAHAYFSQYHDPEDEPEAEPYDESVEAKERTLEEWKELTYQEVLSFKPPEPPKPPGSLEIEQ
T8 sequence (P00533 25-1210): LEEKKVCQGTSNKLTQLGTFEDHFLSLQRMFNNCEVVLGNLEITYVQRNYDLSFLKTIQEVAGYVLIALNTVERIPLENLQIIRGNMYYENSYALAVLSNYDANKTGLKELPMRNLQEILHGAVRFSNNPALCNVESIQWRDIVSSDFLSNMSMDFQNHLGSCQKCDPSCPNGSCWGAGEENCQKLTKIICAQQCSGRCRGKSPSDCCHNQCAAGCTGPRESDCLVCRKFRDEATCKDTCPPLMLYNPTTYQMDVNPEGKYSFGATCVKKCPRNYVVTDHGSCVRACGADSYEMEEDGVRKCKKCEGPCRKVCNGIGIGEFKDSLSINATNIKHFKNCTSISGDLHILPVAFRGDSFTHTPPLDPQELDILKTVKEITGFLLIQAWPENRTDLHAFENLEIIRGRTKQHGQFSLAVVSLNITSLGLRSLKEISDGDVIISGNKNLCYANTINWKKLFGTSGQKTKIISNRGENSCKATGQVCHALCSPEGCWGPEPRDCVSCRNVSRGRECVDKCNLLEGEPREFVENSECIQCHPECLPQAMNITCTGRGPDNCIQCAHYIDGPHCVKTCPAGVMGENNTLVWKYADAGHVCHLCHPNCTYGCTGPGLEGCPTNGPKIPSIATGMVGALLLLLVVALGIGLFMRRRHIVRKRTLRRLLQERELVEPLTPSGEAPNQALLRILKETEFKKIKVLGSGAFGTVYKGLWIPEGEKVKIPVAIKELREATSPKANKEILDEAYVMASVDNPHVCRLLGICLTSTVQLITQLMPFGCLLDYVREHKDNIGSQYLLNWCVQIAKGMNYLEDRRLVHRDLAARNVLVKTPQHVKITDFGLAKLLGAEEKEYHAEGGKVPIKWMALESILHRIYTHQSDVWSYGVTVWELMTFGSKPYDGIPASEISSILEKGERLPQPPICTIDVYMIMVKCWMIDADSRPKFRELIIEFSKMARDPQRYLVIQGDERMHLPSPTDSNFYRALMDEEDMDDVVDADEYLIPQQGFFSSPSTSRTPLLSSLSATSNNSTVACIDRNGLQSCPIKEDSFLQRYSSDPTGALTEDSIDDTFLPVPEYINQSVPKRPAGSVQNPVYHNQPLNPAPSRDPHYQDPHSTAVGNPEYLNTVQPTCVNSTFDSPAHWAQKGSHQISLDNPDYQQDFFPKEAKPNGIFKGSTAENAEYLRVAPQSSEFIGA
T5 sequence (P10721 26-976): as the sequence (P10721 26-976 V560G) above, with G535V counted along it
T1 sequence (P06241 1-534 isoform P06241-2): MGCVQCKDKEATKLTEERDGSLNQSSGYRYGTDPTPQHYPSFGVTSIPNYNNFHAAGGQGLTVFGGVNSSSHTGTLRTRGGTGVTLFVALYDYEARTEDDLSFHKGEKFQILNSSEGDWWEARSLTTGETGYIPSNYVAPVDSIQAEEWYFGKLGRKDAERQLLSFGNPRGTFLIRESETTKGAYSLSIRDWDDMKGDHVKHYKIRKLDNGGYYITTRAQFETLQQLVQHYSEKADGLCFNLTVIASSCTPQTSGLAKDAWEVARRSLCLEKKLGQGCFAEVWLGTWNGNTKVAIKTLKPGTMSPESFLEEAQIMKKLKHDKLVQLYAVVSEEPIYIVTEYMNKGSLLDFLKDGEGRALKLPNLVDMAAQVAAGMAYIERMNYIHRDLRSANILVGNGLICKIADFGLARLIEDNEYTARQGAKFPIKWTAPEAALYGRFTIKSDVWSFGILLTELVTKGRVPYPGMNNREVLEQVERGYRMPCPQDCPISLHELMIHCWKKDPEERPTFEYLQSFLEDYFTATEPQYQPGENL
T19 sequence (P07948 1-491 isoform P07948-2): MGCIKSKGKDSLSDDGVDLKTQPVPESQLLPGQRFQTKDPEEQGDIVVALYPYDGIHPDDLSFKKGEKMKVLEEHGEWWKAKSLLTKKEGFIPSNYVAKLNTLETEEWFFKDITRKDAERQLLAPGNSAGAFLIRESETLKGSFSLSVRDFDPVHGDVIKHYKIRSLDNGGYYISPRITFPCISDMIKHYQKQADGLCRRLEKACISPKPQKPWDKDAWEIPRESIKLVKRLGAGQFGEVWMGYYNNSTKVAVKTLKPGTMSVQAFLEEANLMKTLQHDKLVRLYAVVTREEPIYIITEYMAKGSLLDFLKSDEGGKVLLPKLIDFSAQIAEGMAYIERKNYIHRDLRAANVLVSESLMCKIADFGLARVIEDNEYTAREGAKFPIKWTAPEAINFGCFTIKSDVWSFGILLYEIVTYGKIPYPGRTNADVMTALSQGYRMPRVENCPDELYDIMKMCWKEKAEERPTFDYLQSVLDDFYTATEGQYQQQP

`[2H]c1cc(C)c(NC(=O)c2cnc(Nc3cc(N4CCCCC4)nc(C)n3)s2)c(Cl)c1` [Compound I, N-(2-chloro-4-deuterio-6-methyl-phenyl)-2-[[2-methyl-6-(1-piperidyl)pyrimidin-4-yl]amino]thiazole-5-carboxamide]: the inhibition at 0.01 µM was above 50% at FYN(isoform b) (at 10 nM); above 50% on SRM; above 50% at KIT(D816V); above 50% at BRK; below 50% on KIT; below 50% on KIT(V560G). Moreover, the inhibition at 0.01 µM on EGFR(L858R), on EGFR, at ALK, on RAF1, on p38α and at HER2 was below 50% throughout. Also, the inhibition at 0.01 µM on p38β, at BRAF, on KIT(T670I), on PKD1, on JAK2 and on YES(T348I) (at 10 nM) was below 50% throughout.

In the case of `[2H]c1cc(C)c(NC(=O)c2cnc(Nc3cc(N4CCC(O)CC4)nc(C)n3)s2)c(Cl)c1` [Compound II, N-(2-chloro-4-deuterio-6-methyl-phenyl)-2-[[6-(4-hydroxy-1-piperidyl)-2-methyl-pyrimidin-4-yl]amino]thiazole-5-carboxamide], the inhibition at 0.001 µM on FYN(isoform b) (at 1 nM) was above 50%; at KIT (at 1 nM) it was below 50%; on KIT(V560G) (at 1 nM), below 50%; on EGFR (at 1 nM), below 50%; on RAF1 (at 1 nM) it was below 50%; at p38α (at 1 nM) it was below 50%. Moreover, the inhibition at 0.001 µM on HER2 (at 1 nM) was below 50%; on p38β (at 1 nM), below 50%; at BRAF (at 1 nM), below 50%; at YES(T348I) (at 1 nM), below 50%; at LYNb, above 50%. In addition, the inhibition at 0.01 µM at KIT was above 50%; at KIT(V560G) it was above 50%; on EGFR, below 50%; on RAF1, below 50%; at p38α it was below 50%; on HER2, below 50%. Besides, the inhibition at 0.01 µM on p38β and at BRAF was below 50% in each case. For the same compound, the inhibition at 0.1 µM is above 50% at KIT (at 100 nM); above 50% at KIT(V560G) (at 100 nM); above 50% on EGFR (at 100 nM); below 50% on RAF1 (at 100 nM); below 50% on p38α (at 100 nM); below 50% at HER2 (at 100 nM). Moreover, the inhibition at 0.1 µM at p38β (at 100 nM) and on BRAF (at 100 nM) was below 50% each time.

Turning to `[2H]c1cc(C)c(NC(=O)c2cnc(Nc3cc(N4CC[C@H](O)C4)nc(C)n3)s2)c(Cl)c1` [Compound IV, N-(2-chloro-4-deutero-6-methylphenyl)-2-[[2-methyl-6-((S)-3-hydroxypyrrolidin-1-yl)pyrimidin-4-yl]amino]thiazole-5-carboxamide], in data set [1], the “intravenous plasma clearance compared to dasatinib and compound III” value is on record as “much lower intravenous plasma clearance”; the “intravenous volume of distribution compared to dasatinib and compound III” value was “significantly lower intravenous volume of distribution values”. Moreover, in data set [1] (setting [3]), the V is 1 ± 0 L/kg.

Regarding `[2H]c1cc(C)c(NC(=O)c2cnc(Nc3cc(N4CC[C@@H](O)C4)nc(C)n3)s2)c(Cl)c1` [Compound V, N-(2-chloro-4-deutero-6-methylphenyl)-2-[[2-methyl-6-((R)-3-hydroxypyrrolidin-1-yl)pyrimidin-4-yl]amino]thiazole-5-carboxamide], in data set [1], the “intravenous plasma clearance compared to dasatinib and compound III” value is “much lower intravenous plasma clearance”; the “intravenous volume of distribution compared to dasatinib and compound III” value is “significantly lower intravenous volume of distribution values”. In addition, in data set [1] (setting [3]), the V is recorded as 1 ± 0 L/kg.

As to `Cc1nc(Nc2ncc(C(=O)Nc3c(C)cccc3Cl)s2)cc(N2CC[C@H](O)C2)n1` [Compound X, N-(2-chloro-6-methylphenyl)-2-[[2-methyl-6-((S)-3-hydroxypyrrolidin-1-yl)pyrimidin-4-yl]amino]thiazole-5-carboxamide], in data set [1] (PO 5 mg/kg versus intravenous 1 mg/kg, AUCinf dose normalized, Table 3), the “F, percent oral bioavailability” value was 18.9±2%. In data set [1], the “intravenous plasma clearance compared to dasatinib and compound III” value was “much lower intravenous plasma clearance”; the “intravenous volume of distribution compared to dasatinib and compound III” value is recorded as “significantly lower intravenous volume of distribution values”. In addition, the V in [1] (setting [4]) was found to be 1 ± 0 L/kg. The “ratio of lung tissue concentration to plasma concentration, compared to dasatinib” value in data set [2] was “significantly lower ratios”.

`Cc1nc(Nc2ncc(C(=O)Nc3c(C)cccc3Cl)s2)cc(N2CC[C@@H](O)C2)n1` [Compound XI, N-(2-chloro-6-methylphenyl)-2-[[2-methyl-6-((R)-3-hydroxypyrrolidin-1-yl)pyrimidin-4-yl]amino]thiazole-5-carboxamide]: in [1], the “intravenous plasma clearance compared to dasatinib and compound III” value is listed as “much lower intravenous plasma clearance”; the “intravenous volume of distribution compared to dasatinib and compound III” value is on record as “significantly lower intravenous volume of distribution values”. In addition, in [1] (setting [4]), the V stood at 1 ± 0 L/kg. In addition, the “ratio of lung tissue concentration to plasma concentration, compared to dasatinib” value in data set [2] is listed as “significantly lower ratios”.

The values above are taken from patent US10479786B2, “Protein kinase inhibitors” (Princeton Drug Discovery Inc, priority 2016, dated 2019).
